Measured values taken from patent US7915293B2, “Ubiquitin ligase inhibitors” (Rigel Pharmaceuticals, Inc., priority 2003, dated 2011).

molecular target: E3 (His-APC11/APC2-"APC") (Homo sapiens, UniProt Q9NYG5+Q9UJX6); experiment: Plate-based E3 ligase assay (APC FLAG), auto-ubiquitination; format: biochemical; parameters: key: “+” indicates that the compound exibits inhibitory activity; “−” indicates that low or no inhibitory activity was observed; conditions: 2 concentrations tested
Description: E3 (His-APC11/APC2-“APC”) auto-ubiquitination was measured as described in U.S. patent application Ser. No. 09/826,312 (Publication No. US-2002-0042083-A1), which is incorporated herein in its entirety. Details of the protocol are described below. Activity in the presence of the compound was determined relative to a parallel control in which only DMSO was added. Values of the IC50 were typically determined using 6 or 8 different concentrations of the compound, although as few as 2 concentrations may be used to approximate the IC50 value.
Nickel-coated 96-well plates (Pierce 15242) were blocked for 1 hour with 100 μl of blocking buffer at room temperature. The plates were washed 4 times with 225 μl of 1×PBS and 80 μl of the reaction buffer were added that contained 100 ng/well of Flag-ubiquitin. To this, 10 μl of the test compound diluted in DMSO were added. After the test compound was added, 10 μl of E1 (human), E2 (Ubch5c), and APC in Protein Buffer was added to obtain a final concentration of 5 ng/well of E1, 20 ng/well of E2 and 100 ng/well of APC. The plate were shaken for 10 minutes and incubated at room temperature for 1 hour. After incubation, the plates were washed 4 times with 225 μl of 1×PBS and 100 μl/well of Antibody Mix were added to each well. The plates were incubate at room temperature for another hour after which they were washed 4 times with 225 μl of 1×PBS and 100 μl/well of Lumino substrate were added to each well. The luminescence was measured by using a BMG luminescence microplate reader.
To prepare the Blocking Buffer (1 liter; 1% Casein in 1×PBS), 10 grams of Casein (Hammersten Grade Casein from Gallard-Schlesinger Inc. #440203) were placed into 1 liter of 1×PBS, stirred on a hot plate and kept between 50-60° C. for an hour. The buffer was allowed to cool to room temperature and then filtered using a Buchner Funnel (Buchner filter funnel 83 mm 30310-109) and Whatman filter paper (Whatman Grade No. 1 Filter paper 28450-070). It was stored at 4° C. until used.
The reaction buffer consisted of 62.5 mM Tris pH 7.6 (Trizma Base—Sigma T-8524), 3 mM MgCl2 (Magnesium Chloride—Sigma M-2393), 1 mM DTT (Sigma D-9779), 2.5 mM ATP (Roche Boehringer Mann Corp. 635-316), 100 ng/well of Flag-ubiquitin, 0.1% BSA (Sigma A-7906), and 0.05% Tween-20 (Sigma P-7949).
The Protein Buffer consisted of 20 mM Tris pH 7.6, 10% glycerol (Sigma G-5516) and 1 mM DTT.
The antibody mix consisted of 0.25% BSA (Sigma A-7906) in 1×PBS, 1/50,000 anti-Flag (Sigma F-3165), 1/100,000 of anti-Mouse IgG-HRP (Jackson Immunoresearch #115-035-146).
The substrate mix consisted of SuperSignal Substrate from Pierce (catalog number 37070ZZ) and was prepared by mixing 100 ml of the peroxide solution, 100 ml of the enhancer solution and 100 ml of Milli-Q® water.

E3 (His-APC11/APC2-"APC"), sequence (Q9NYG5 whole entry): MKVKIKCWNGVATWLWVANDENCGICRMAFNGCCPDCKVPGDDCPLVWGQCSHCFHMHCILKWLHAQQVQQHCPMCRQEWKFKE
E3 (His-APC11/APC2-"APC"), sequence (Q9UJX6 whole entry): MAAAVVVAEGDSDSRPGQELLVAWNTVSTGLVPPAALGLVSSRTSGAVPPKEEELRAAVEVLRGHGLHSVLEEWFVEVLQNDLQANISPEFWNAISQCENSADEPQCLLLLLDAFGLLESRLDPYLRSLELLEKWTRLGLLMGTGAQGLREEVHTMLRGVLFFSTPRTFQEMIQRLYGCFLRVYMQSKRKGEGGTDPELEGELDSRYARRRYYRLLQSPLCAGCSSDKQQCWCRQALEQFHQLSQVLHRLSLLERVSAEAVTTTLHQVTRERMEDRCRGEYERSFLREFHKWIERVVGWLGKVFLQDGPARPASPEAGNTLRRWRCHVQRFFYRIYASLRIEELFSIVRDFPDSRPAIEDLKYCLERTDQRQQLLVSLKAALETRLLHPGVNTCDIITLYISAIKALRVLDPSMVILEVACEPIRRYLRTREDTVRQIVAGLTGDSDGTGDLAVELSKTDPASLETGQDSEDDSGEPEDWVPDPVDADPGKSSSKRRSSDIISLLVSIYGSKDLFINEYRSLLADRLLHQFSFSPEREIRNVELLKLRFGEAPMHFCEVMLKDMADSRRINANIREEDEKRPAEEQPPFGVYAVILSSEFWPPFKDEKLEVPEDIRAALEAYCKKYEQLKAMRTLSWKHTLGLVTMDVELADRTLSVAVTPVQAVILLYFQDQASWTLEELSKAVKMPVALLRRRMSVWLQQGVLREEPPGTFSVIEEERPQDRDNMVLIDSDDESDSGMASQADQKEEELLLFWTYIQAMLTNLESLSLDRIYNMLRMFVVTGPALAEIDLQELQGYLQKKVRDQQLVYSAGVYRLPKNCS

APC Flag (2 pt) | Structure (SMILES)
− (2 pt) | CC(C)c1ccccc1NS(=O)(=O)c1cc(Cl)c(Oc2ccc([N+](=O)[O-])cc2Cl)c(Cl)c1 [Example 227, 3,5-dichloro-4-(2-chloro-4-nitrophenoxy)-N-(2-isopropylphenyl)benzenesulfonamide]
− (2 pt) | O=S(=O)(Nc1cccc(Br)c1)c1ccc(Oc2ccc(F)cc2)cc1 [Example 187, N-(3-bromophenyl)-4-(4-fluorophenoxy) benzenesulfonamide]
− (2 pt) | O=S(=O)(Nc1cccc(Br)c1)c1ccc(Oc2ccc(Cl)cc2)cc1 [Example 196, N-(3-bromophenyl)-4-(4-chlorophenoxy) benzenesulfonamide]
− (2 pt) | CN(c1cc(Cl)cc(Cl)c1)S(=O)(=O)c1cc(Cl)c(Oc2ccc([N+](=O)[O-])cc2Cl)c(Cl)c1 [Example 190, 3,5-dichloro-4-(2-chloro-4-nitrophenoxy)-N-(3,5-dichlorophenyl)-N-methylbenzene-sulfonamide]

The next lines start with the molecule.

Structure (SMILES) | APC Flag (2 pt)
O=S(=O)(Nc1ccc(F)c(Cl)c1)c1ccc(Oc2ccc(Cl)cc2)cc1 [Example 195, N-(3-chloro-4-fluorophenyl)-4-(4-chloro-phenoxy)benzenesulfonamide] | − (2 pt)
Cc1c(Cl)cccc1NS(=O)(=O)c1ccc(Oc2ccc(Cl)cc2)cc1 [Example 194, N-(3-chloro-2-methylphenyl)-4-(4-chloro-phenoxy)benzenesulfonamide] | − (2 pt)

same assay, conditions: 8 concentrations tested

APC Flag 8 pt | Structure (SMILES)
+ | CNS(=O)(=O)c1cc(Cl)c(Oc2ccc([N+](=O)[O-])cc2Cl)c(Cl)c1 [Example 135, 3,5-dichloro-4-(2-chloro-4-nitrophenoxy)-N-methylbenzenesulfonamide]
+ | N#Cc1cccc(NS(=O)(=O)c2cc(Cl)c(Oc3ccc([N+](=O)[O-])cc3Cl)c(Cl)c2)c1 [Example 169, 3,5-dichloro-4-(2-chloro-4-nitrophenoxy)-N-(3-cyanophenyl)benzenesulfonamide]
+ | O=[N+]([O-])c1ccc(Oc2c(Cl)cc(S(=O)(=O)Nc3ccc4c(c3)OCO4)cc2Cl)c(Cl)c1 [Example 162, N-1,3-benzodioxol-5-yl-3,5-dichloro-4-(2-chloro-4-nitrophenoxy)benzenesulfonamide]
− | O=[N+]([O-])c1ccc(Oc2c(Cl)cc(S(=O)(=O)NC(=S)Nc3cccnc3)cc2Cl)c(Cl)c1 [Example 158, 3,5-dichloro-4-(2-chloro-4-nitrophenoxy)-N-[(pyridin-3-ylamino)carbonothioyl] benzenesulfonamide]
− | O=C(Nc1cc(Cl)ccc1Cl)N1CCC(Oc2ncccn2)CC1 [Compound 310, N-(2,5-dichlorophenyl)-4-(pyrimidin-2-yloxy)piperidine-1-carboxamide]
+ | COc1ccc(CCNS(=O)(=O)c2cc(Cl)c(Oc3ccc([N+](=O)[O-])cc3Cl)c(Cl)c2)cc1 [Example 129, 3,5-dichloro-4-(2-chloro-4-nitrophenoxy)-N-[2-(4-methoxyphenyl)ethyl]benzene-sulfonamide]
− | O=[N+]([O-])c1ccc(Oc2c(Cl)cc(S(=O)(=O)NCCN3CCOCC3)cc2Cl)c(Cl)c1 [Example 132, 3,5-dichloro-4-(2-chloro-4-nitrophenoxy)-N-(2-morpholin-4-ylethyl)benzenesulfonamide]
− | N#Cc1c(Cl)cccc1Oc1ccc(S(=O)(=O)Nc2cccc(Br)c2)cc1 [Example 180, N-(3-bromophenyl)-4-(3-chloro-2-cyano-phenoxy)benzenesulfonamide]
− | O=[N+]([O-])c1ccc(Oc2c(Cl)cc(S(=O)(=O)NC3CCNCC3)cc2Cl)c(Cl)c1 [Example 130, 3,5-dichloro-4-(2-chloro-4-nitrophenoxy)-N-piperidin-4-ylbenzenesulfonamide]
+ | Cc1ccc(NS(=O)(=O)c2cc(Cl)c(Oc3ccc([N+](=O)[O-])cc3Cl)c(Cl)c2)cc1F [Example 198, 3,5-dichloro-4-(2-chloro-4-nitrophenoxy)-N-(3-fluoro-4-methylphenyl)benzene-sulfonamide]

Second part, the molecule before the results:

Structure (SMILES) | APC Flag 8 pt
O=[N+]([O-])c1cccc(Cl)c1Oc1ccc(S(=O)(=O)Nc2ccc(F)c(Cl)c2)cc1 [Example 185, N-(3-chloro-4-fluorophenyl)-4-(2-chloro-6-nitrophenoxy)benzenesulfonamide] | −
Cc1c(Cl)cccc1N(S(=O)(=O)c1cc(Cl)c(Oc2ccc([N+](=O)[O-])cc2Cl)c(Cl)c1)S(=O)(=O)c1cc(Cl)c(Oc2ccc([N+](=O)[O-])cc2Cl)c(Cl)c1 [Example 143, 3,5-dichloro-N-(3-chloro-2-methylphenyl)-4-(2-chloro-4-nitrophenoxy)-N-(1,3-dichloro-2-(2-chloro-4-nitrophenoxy)-5-sulfonylbenzene)benzenesulfonamide] | +
Cc1cc(C)c(N(S(=O)(=O)c2cc(Cl)c(Oc3ccc([N+](=O)[O-])cc3Cl)c(Cl)c2)S(=O)(=O)c2cc(Cl)c(Oc3ccc([N+](=O)[O-])cc3Cl)c(Cl)c2)c(C)c1 [Example 142, 3,5-dichloro-4-(2-chloro-4-nitrophenoxy)-N-mesityl-N-(1,3-dichloro-2-(2-chloro-4-nitrophenoxy)-5-sulfonylbenzene)benzene-sulfonamide] | +
N#Cc1ccc(N(S(=O)(=O)c2cc(Cl)c(Oc3ccc([N+](=O)[O-])cc3Cl)c(Cl)c2)S(=O)(=O)c2cc(Cl)c(Oc3ccc([N+](=O)[O-])cc3Cl)c(Cl)c2)cc1 [Example 136, 3,5-dichloro-4-(2-chloro-4-nitrophenoxy)-N-(4-cyanophenyl)-N-(1,3-dichloro-2-(2-chloro-4-nitrophenoxy)-5-sulfonylbenzene)-benzenesulfonamide] | +
O=[N+]([O-])c1ccc(Oc2c(Cl)cc(S(=O)(=O)Nc3cc(Cl)cnc3Cl)cc2Cl)c(Cl)c1 [Example 233, 3,5-dichloro-4-(2-chloro-4-nitrophenoxy)-N-(2,5-dichloropyridin-3-yl)benzene-sulfonamide] | +
Cc1ccc(N(S(=O)(=O)c2cc(Cl)c(Oc3ccc([N+](=O)[O-])cc3Cl)c(Cl)c2)S(=O)(=O)c2cc(Cl)c(Oc3ccc([N+](=O)[O-])cc3Cl)c(Cl)c2)cc1 [Example 137, 3,5-dichloro-4-(2-chloro-4-nitrophenoxy)-N-(4-methylphenyl)-N-(1,3-dichloro-2-(2-chloro-4-nitrophenoxy)-5-sulfonylbenzene) benzenesulfonamide] | +
O=[N+]([O-])c1ccc(Oc2c(Cl)cc(S(=O)(=O)NCc3ccc(Cl)cc3)cc2Cl)c(Cl)c1 [Example 125, 3,5-dichloro-N-(4-chlorobenzyl)-4-(2-chloro-4-nitrophenoxy)benzenesulfonamide] | −
Cc1cc(C)c(NS(=O)(=O)c2cc(Cl)c(Oc3ccc([N+](=O)[O-])cc3Cl)c(Cl)c2)c(C)c1 [Example 144, 3,5-dichloro-4-(2-chloro-4-nitrophenoxy)-N-mesitylbenzenesulfonamide] | +
CC(=N)NS(=O)(=O)c1cc(Cl)c(Oc2ccc([N+](=O)[O-])cc2)c(Cl)c1 [Example 63, N-{[3,5-dichloro-4-(4-nitrophenoxy)phenyl]sulfonyl}ethanimidamide] | −
O=S(=O)(c1ccc(Oc2ccc(Cl)cc2Cl)cc1F)N1CCCCC1 [Example 119, 1-{[4-(2,4-dichlorophenoxy)-2-fluorophenyl]sulfonyl)piperidine] | +
O=[N+]([O-])c1ccc(N(S(=O)(=O)c2cc(Cl)c(Oc3ccc([N+](=O)[O-])cc3Cl)c(Cl)c2)S(=O)(=O)c2cc(Cl)c(Oc3ccc([N+](=O)[O-])cc3Cl)c(Cl)c2)cc1 [Example 138, 3,5-dichloro-4-(2-chloro-4-nitrophenoxy)-N-(1,3-dichloro-2-(2-chloro-4-nitrophenoxy)-5-sulfonylbenzene)-N-(4-nitrophenyl) benzenesulfonamide] | +
